Laboratory results published in patent US12545639B2, “3-substituted phenylamidine compounds, preparation and use thereof” (PI INDUSTRIES LTD., priority 2019, dated 2026).

Assays:
Phakopsora pachyrhizi = Phakopsora pachyrhizi test in soybean, preventive, in vivo on plants; conditions: in Glycine max, read-out: Efficacy (% control), disease severity compared to the untreated check
Alternaria solani = Alternaria solani (early blight of tomato/potato) in vitro test, radial growth on potato dextrose agar; format: cell-based; conditions: 168 h, 300 ppm in potato dextrose agar, 25° C., 60% relative humidity, seven days, read-out: control compared to the untreated check (radial growth)
[1] = tested on: Septoria lycopersici/Corynespora cassicola (CORYCA); assay: Septoria lycopersici/Corynespora cassicola (CORYCA) (leaf spot of tomato) in vitro test, radial growth on potato dextrose agar; format: cell-based; conditions: 168 h, 300 ppm in potato dextrose agar, 25° C., 70% relative humidity, seven days, read-out: control compared to the untreated check (radial growth)
Botrytis cinerea = Botrytis cinerea (gray mold) in vitro test, radial growth on potato dextrose agar; format: cell-based; conditions: 168 h, 300 ppm in potato dextrose agar, 22° C., 90% relative humidity, seven days, read-out: control compared to the untreated check (radial growth)
Rhizoctonia solani = Rhizoctonia solani (rice sheath blight/potato black scurf) in vitro test, radial growth on potato dextrose agar; format: cell-based; conditions: 168 h, 300 ppm in potato dextrose agar, 25° C., 60% relative humidity, seven days, read-out: control compared to the untreated check (radial growth)
Pyricularia oryzae = assay: microbe, parasite or virus in culture; format: cell-based; conditions: 168 h, read-out: control compared to the untreated check (radial growth)

CCN(C)C=Nc1cc(F)cc(Cc2cc(F)cc(OC)c2)c1C [Compound 237, N-ethyl-N′-(5-fluoro-3-(3-fluoro-5-methoxybenzyl)-2-methylphenyl)-N-methylformimidamide]
≥ 70%: pest or weed control at 500 ppm (Phakopsora pachyrhizi) | inhibition of growth at 300 ppm (Alternaria solani) | inhibition of growth at 300 ppm [1] | inhibition of growth at 300 ppm (Botrytis cinerea) | inhibition of growth at 300 ppm (Rhizoctonia solani) | inhibition of growth at 300 ppm (Pyricularia oryzae)

CCN(C)C=Nc1cc(Cl)cc(N(C)c2ccccc2)c1C [Compound 159, N′-(5-chloro-2-methyl-3-(methyl(phenyl)amino)phenyl)-N-ethyl-N-methylformimidamide]
≥ 70%: pest or weed control at 500 ppm (Phakopsora pachyrhizi) | inhibition of growth at 300 ppm (Alternaria solani) | inhibition of growth at 300 ppm [1] | inhibition of growth at 300 ppm (Botrytis cinerea) | inhibition of growth at 300 ppm (Pyricularia oryzae)

CCN(C)C=Nc1cc(F)cc(Nc2cccc(F)c2)c1C [Compound 29, N-ethyl-N′-(5-fluoro-3-((3-fluorophenyl)amino)-2-methylphenyl)-N-methylformimidamide]
≥ 70%: pest or weed control at 500 ppm (Phakopsora pachyrhizi) | inhibition of growth at 300 ppm (Alternaria solani) | inhibition of growth at 300 ppm [1] | inhibition of growth at 300 ppm (Botrytis cinerea) | inhibition of growth at 300 ppm (Rhizoctonia solani) | inhibition of growth at 300 ppm (Pyricularia oryzae)

CCN(C)C=Nc1cc(F)cc(Cc2cccc(C)c2)c1C [Compound 146, N-ethyl-N′-(5-fluoro-2-methyl-3-(3-methylbenzyl)phenyl)-N-methylformimidamide]
≥ 70%: pest or weed control at 500 ppm (Phakopsora pachyrhizi) | inhibition of growth at 300 ppm (Alternaria solani) | inhibition of growth at 300 ppm [1] | inhibition of growth at 300 ppm (Botrytis cinerea) | inhibition of growth at 300 ppm (Rhizoctonia solani) | inhibition of growth at 300 ppm (Pyricularia oryzae)

CCN(C)C=Nc1cc(F)cc(N(C)c2cc(C)ccc2Cl)c1C [Compound 117, N′-(3-((2-chloro-5-methylphenyl)(methyl)amino)-5-fluoro-2-methylphenyl)-N-ethyl-N-methylformimidamide]
≥ 70%: pest or weed control at 500 ppm (Phakopsora pachyrhizi) | inhibition of growth at 300 ppm (Alternaria solani) | inhibition of growth at 300 ppm [1] | inhibition of growth at 300 ppm (Botrytis cinerea) | inhibition of growth at 300 ppm (Pyricularia oryzae)

CCN(C)C=Nc1cc(OC)cc(Cc2cccc(C(F)(F)F)c2)c1C [Compound 296, N-ethyl-N′-(5-methoxy-2-methyl-3-(3-(trifluoromethyl)benzyl)phenyl)-N-methylformimidamide]
≥ 70%: pest or weed control at 500 ppm (Phakopsora pachyrhizi) | inhibition of growth at 300 ppm (Alternaria solani) | inhibition of growth at 300 ppm [1] | inhibition of growth at 300 ppm (Botrytis cinerea) | inhibition of growth at 300 ppm (Rhizoctonia solani) | inhibition of growth at 300 ppm (Pyricularia oryzae)

CCN(C)C=Nc1cc(F)cc(Cc2cccc(Br)c2)c1C [Compound 205, N′-(3-(3-bromobenzyl)-5-fluoro-2-methylphenyl)-N-ethyl-N-methylformimidamide]
≥ 70%: pest or weed control at 500 ppm (Phakopsora pachyrhizi) | inhibition of growth at 300 ppm (Alternaria solani) | inhibition of growth at 300 ppm [1] | inhibition of growth at 300 ppm (Botrytis cinerea) | inhibition of growth at 300 ppm (Rhizoctonia solani) | inhibition of growth at 300 ppm (Pyricularia oryzae)

CCN(C)C=Nc1cc(F)cc(Cc2ccc(Cl)c(F)c2)c1C [Compound 206, N′-(3-(4-chloro-3-fluorobenzyl)-5-fluoro-2-methylphenyl)-N-ethyl-N-methylformimidamide]
≥ 70%: pest or weed control at 500 ppm (Phakopsora pachyrhizi) | inhibition of growth at 300 ppm (Alternaria solani) | inhibition of growth at 300 ppm [1] | inhibition of growth at 300 ppm (Botrytis cinerea) | inhibition of growth at 300 ppm (Rhizoctonia solani) | inhibition of growth at 300 ppm (Pyricularia oryzae)

CCN(C)C=Nc1cc(F)cc(N(C)c2cc(C)cc(F)c2)c1C [Compound 119, N-ethyl-N′-(5-fluoro-3-((3-fluoro-5-methylphenyl)(methyl)amino)-2-methylphenyl)-N-methylformimidamide]
≥ 70%: pest or weed control at 500 ppm (Phakopsora pachyrhizi) | inhibition of growth at 300 ppm (Alternaria solani) | inhibition of growth at 300 ppm [1] | inhibition of growth at 300 ppm (Botrytis cinerea) | inhibition of growth at 300 ppm (Pyricularia oryzae)

CCN(C)C=Nc1cc(F)cc(Cc2ccccc2Br)c1C [Compound 151, N′-(3-(2-bromobenzyl)-5-fluoro-2-methylphenyl)-N-ethyl-N-methylformimidamide]
≥ 70%: pest or weed control at 500 ppm (Phakopsora pachyrhizi) | inhibition of growth at 300 ppm (Alternaria solani) | inhibition of growth at 300 ppm [1] | inhibition of growth at 300 ppm (Botrytis cinerea) | inhibition of growth at 300 ppm (Rhizoctonia solani) | inhibition of growth at 300 ppm (Pyricularia oryzae)

CCN(C)C=Nc1cc(F)cc(N(C)c2cc(F)cc(F)c2)c1C [Compound 84, N′-(3-((3,5-difluorophenyl)(methyl)amino)-5-fluoro-2-methylphenyl)-N-ethyl-N-methylformimidamide]
≥ 70%: pest or weed control at 500 ppm (Phakopsora pachyrhizi) | inhibition of growth at 300 ppm (Alternaria solani) | inhibition of growth at 300 ppm [1] | inhibition of growth at 300 ppm (Botrytis cinerea) | inhibition of growth at 300 ppm (Rhizoctonia solani)

CCN(C)C=Nc1cc(F)cc(Cc2ccccc2)c1C [Compound 149, N′-(3-benzyl-5-fluoro-2-methylphenyl)-N-ethyl-N-methylformimidamide]
≥ 70%: pest or weed control at 500 ppm (Phakopsora pachyrhizi) | inhibition of growth at 300 ppm (Alternaria solani) | inhibition of growth at 300 ppm [1] | inhibition of growth at 300 ppm (Botrytis cinerea) | inhibition of growth at 300 ppm (Rhizoctonia solani) | inhibition of growth at 300 ppm (Pyricularia oryzae)

CCN(C)C=Nc1cc(C#N)cc(Cc2cccc(F)c2)c1C [Compound 297, N′-(5-cyano-3-(3-fluorobenzyl)-2-methylphenyl)-N-ethyl-N-methylformimidamide]
≥ 70%: pest or weed control at 500 ppm (Phakopsora pachyrhizi) | inhibition of growth at 300 ppm (Alternaria solani) | inhibition of growth at 300 ppm [1] | inhibition of growth at 300 ppm (Botrytis cinerea) | inhibition of growth at 300 ppm (Pyricularia oryzae)

CCN(C)C=Nc1cc(F)cc(Cc2cccc(F)c2)c1C [Compound 147, N-ethyl-N′-(5-fluoro-3-(3-fluorobenzyl)-2-methylphenyl)-N-methylformimidamide]
≥ 70%: pest or weed control at 500 ppm (Phakopsora pachyrhizi) | inhibition of growth at 300 ppm (Alternaria solani) | inhibition of growth at 300 ppm [1] | inhibition of growth at 300 ppm (Botrytis cinerea) | inhibition of growth at 300 ppm (Rhizoctonia solani) | inhibition of growth at 300 ppm (Pyricularia oryzae)

CCN(C)C=Nc1cc(C)cc(Cc2ccccc2)c1Cl [Compound 70, N′-(3-benzyl-2-chloro-5-methylphenyl)-N-ethyl-N-methylformimidamide]
≥ 70%: pest or weed control at 500 ppm (Phakopsora pachyrhizi) | inhibition of growth at 300 ppm (Alternaria solani) | inhibition of growth at 300 ppm [1] | inhibition of growth at 300 ppm (Botrytis cinerea) | inhibition of growth at 300 ppm (Rhizoctonia solani) | inhibition of growth at 300 ppm (Pyricularia oryzae)

CCN(C)C=Nc1cc(Cl)cc(Nc2cccc(C(F)(F)F)n2)c1C [Compound 274, N′-(5-chloro-2-methyl-3-((6-(trifluoromethyl)pyridin-2-yl)amino)phenyl)-N-ethyl-N-methylformimidamide]
≥ 70%: pest or weed control at 500 ppm (Phakopsora pachyrhizi) | inhibition of growth at 300 ppm (Alternaria solani) | inhibition of growth at 300 ppm [1] | inhibition of growth at 300 ppm (Botrytis cinerea) | inhibition of growth at 300 ppm (Rhizoctonia solani) | inhibition of growth at 300 ppm (Pyricularia oryzae)

CCN(C)C=Nc1cc(C)cc(Cc2cccc(F)c2)c1Cl [Compound 22, N′-(2-chloro-3-(3-fluorobenzyl)-5-methylphenyl)-N-ethyl-N-methylformimidamide]
≥ 70%: pest or weed control at 500 ppm (Phakopsora pachyrhizi) | inhibition of growth at 300 ppm (Alternaria solani) | inhibition of growth at 300 ppm [1] | inhibition of growth at 300 ppm (Botrytis cinerea) | inhibition of growth at 300 ppm (Rhizoctonia solani) | inhibition of growth at 300 ppm (Pyricularia oryzae)

CCN(C)C=Nc1cc(Cl)cc(N(C)c2ccccc2C)c1C [Compound 191, N′-(5-chloro-2-methyl-3-(methyl(o-tolyl)amino)phenyl)-N-ethyl-N-methylformimidamide]
≥ 70%: pest or weed control at 500 ppm (Phakopsora pachyrhizi) | inhibition of growth at 300 ppm (Alternaria solani) | inhibition of growth at 300 ppm [1] | inhibition of growth at 300 ppm (Botrytis cinerea) | inhibition of growth at 300 ppm (Rhizoctonia solani) | inhibition of growth at 300 ppm (Pyricularia oryzae)

CCN(C)C=Nc1cc(F)cc(Nc2cccc(C(F)(F)F)n2)c1C [Compound 273, N-ethyl-N′-(5-fluoro-2-methyl-3-((6-(trifluoromethyl)pyridin-2-yl)amino)phenyl)-N-methylformimidamide]
≥ 70%: pest or weed control at 500 ppm (Phakopsora pachyrhizi) | inhibition of growth at 300 ppm (Alternaria solani) | inhibition of growth at 300 ppm [1] | inhibition of growth at 300 ppm (Botrytis cinerea) | inhibition of growth at 300 ppm (Rhizoctonia solani) | inhibition of growth at 300 ppm (Pyricularia oryzae)

CCN(C)C=Nc1cc(Cl)cc(Nc2ccccc2OC(F)(F)F)c1C [Compound 301, N′-(5-chloro-2-methyl-3-((2-(trifluoromethoxy)phenyl)amino)phenyl)-N-ethyl-N-methylformimidamide]
≥ 70%: pest or weed control at 500 ppm (Phakopsora pachyrhizi) | inhibition of growth at 300 ppm (Alternaria solani) | inhibition of growth at 300 ppm [1] | inhibition of growth at 300 ppm (Botrytis cinerea) | inhibition of growth at 300 ppm (Rhizoctonia solani) | inhibition of growth at 300 ppm (Pyricularia oryzae)

CCN(C)C=Nc1cc(F)cc(Cc2cccc([N+](=O)[O-])c2)c1C [Compound 259, N-ethyl-N′-(5-fluoro-2-methyl-3-(3-nitrobenzyl)phenyl)-N-methylformimidamide]
≥ 70%: pest or weed control at 500 ppm (Phakopsora pachyrhizi) | inhibition of growth at 300 ppm (Alternaria solani) | inhibition of growth at 300 ppm [1] | inhibition of growth at 300 ppm (Botrytis cinerea) | inhibition of growth at 300 ppm (Rhizoctonia solani) | inhibition of growth at 300 ppm (Pyricularia oryzae)

CCN(C)C=Nc1cc(F)cc(N(C)c2c(C)cccc2F)c1C [Compound 145, N-ethyl-N′-(5-fluoro-3-((2-fluoro-6-methylphenyl)(methyl)amino)-2-methylphenyl)-N-methylformimidamide]
≥ 70%: pest or weed control at 500 ppm (Phakopsora pachyrhizi) | inhibition of growth at 300 ppm (Alternaria solani) | inhibition of growth at 300 ppm [1] | inhibition of growth at 300 ppm (Botrytis cinerea) | inhibition of growth at 300 ppm (Rhizoctonia solani) | inhibition of growth at 300 ppm (Pyricularia oryzae)
